The nature of series [1]: Clinical plasma pharmacokinetics of NTLA-2001 components (LC-MS/MS for Lipid A and DMG-PEG2k, qRT-PCR for guide RNA and mRNA). The format is in vivo, human. To be noted: for plasma concentration-time profile: following single IV infusion of NTLA-2001, interim. The source says:
Plasma pharmacokinetic methods were developed and validated to quantify 4 components of NTLA-2001: ionizable Lipid A (also referred to as LP01), DMG-PEG2k lipid, guide RNA, and mRNA. Lipid A and DMG-PEG2k are quantified by liquid chromatography with tandem mass spectrometry (LC-MS/MS) method. Assay signal [ratio of area under the curve of reference standard over internal standard (IS, using isotopic labelled reference standard)] vs. Concentration response standard curve is used. QCs and unknown sample signal are interpolated from standard curve to determine plasma concentrations. Both guide RNA and mRNA are quantified by qRT-PCR. Signal Cycle Threshold (Ct) vs. Concentration standard curve is used. QCs and unknown samples were interpolated from standard curve to quantify plasma concentrations. Urine PK methods were developed and validated for Lipid A and DMG-PEG2k to characterize excretion.
Preliminary plasma PK data are available for the four components of NTLA-2001 (ionizable Lipid A, DMG-PEG2k lipid, guide RNA, and mRNA). […] FIG. 24. Data for other components not shown.
On the technique in general: Real-time PCR tracks product formation cycle by cycle.

Series [2] can be described thus: Population pharmacokinetics (POPPK) model and simulations of LP01. Set-up: species or system human. To be noted: interim POPPK model, 15 ATTRv-PN subjects. As for the experimental part: An interim POPPK model was developed for NTLA-2001 analyte LP01 based on a published model using NONMEM software (Version 7.5.0, ICON Clinical Research LLC, Blue Vell, PA). There were 290 observations in 15 ATTRv-PN subjects for this analysis. Parameter values for this model and goodness of fit plots were determined (not shown). The relationship between body weight and the estimated elimination clearance was determined, together with the modeled linear relationship.
FIG. 26 provides the distribution of simulated AUC by weight quartile following administration of 1 mg/kg (left panel) and 80 mg (right panel) NTLA-2001. […] Likewise, following 80 mg NTLA-2001, there is again overlap of simulated LP01 AUC across weight quartiles. […] The ratio of simulated mean exposures in the 4th ([90.3-146] kg) to the 1st weight quartile ([48-71.7] kg) is 1.25 for 1 mg/kg NTLA-2001 and 0.81 for 80 mg NTLA-2001. Simulations identified NTLA-2001 80 mg as the fixed dose equivalent to 1.0 mg/kg.

These results are taken from patent US20250269062A1, “METHODS FOR IN VIVO EDITING OF A LIVER GENE” (INTELLIA THERAPEUTICS, INC., priority 2021, published 2025).

“Also recorded” adds a separate entry of the source.

Regarding `CCCCC/C=C\C/C=C\CCCCCCCC(=O)OCC(COC(=O)CCC(OCCCCCCCC)OCCCCCCCC)COC(=O)OCCCN(CC)CC` (stereo not shown) [LP01, (9Z,12Z)-3-((4,4-bis(octyloxy)butanoyl)oxy)-2-((((3-(diethylamino)propoxy)carbonyl)oxy)methyl)propyl octadeca-9,12-dienoate], the plasma concentration-time profile result in series [1] is “rapid decline from peak levels, followed by a secondary peak, and then a log-linear phase; also recorded: declines rapidly from peak and then exhibits a secondary peak and log-linear phase”; in series [1] (listed as NTLA-2001 ionizable lipid) it was “rapid decline from peak levels followed by a secondary peak and then a log-linear phase”. Moreover, the half-life in series [1] (human, plasma, single IV infusion of NTLA-2001 at 0.1 to 1.0 mg/kg, range across doses, preliminary, read-out: mean (% CV) terminal t1/2) fell in the range of 19.7 to 24.8 h. For the same compound, the “relationship between body weight and estimated elimination clearance” value in series [2] is “less than proportional”.
